# From patent US11078197B2, “5-membered and bicyclic heterocyclic amides as inhibitors of rock” (BRISTOL-MYERS SQUIBB COMPANY, priority 2017, dated 2021)
# Biological target: ROCK2 (Homo sapiens (Human), UniProt O75116)
# Experiment: ROCK2 assay (peptide phosphorylation, LABCHIP 3000 Reader)
# Format: biochemical
# Settings: 5 μM ATP, 1.5 μM peptide substrate, dose-response
# Experimental: After incubation, the reaction was terminated by the addition of EDTA and the phosphorylated and non-phosphorylated peptides separated using a LABCHIP®3000 Reader (Caliper Life Sciences). […] Compounds were tested in dose-response format, and the inhibition of kinase activity was calculated at each concentration of compound. […] Representative Examples were tested in the ROCK2 assay described above and found having ROCK2 inhibitory activity.
# Chain of ROCK2 (O75116 whole entry, species assumed): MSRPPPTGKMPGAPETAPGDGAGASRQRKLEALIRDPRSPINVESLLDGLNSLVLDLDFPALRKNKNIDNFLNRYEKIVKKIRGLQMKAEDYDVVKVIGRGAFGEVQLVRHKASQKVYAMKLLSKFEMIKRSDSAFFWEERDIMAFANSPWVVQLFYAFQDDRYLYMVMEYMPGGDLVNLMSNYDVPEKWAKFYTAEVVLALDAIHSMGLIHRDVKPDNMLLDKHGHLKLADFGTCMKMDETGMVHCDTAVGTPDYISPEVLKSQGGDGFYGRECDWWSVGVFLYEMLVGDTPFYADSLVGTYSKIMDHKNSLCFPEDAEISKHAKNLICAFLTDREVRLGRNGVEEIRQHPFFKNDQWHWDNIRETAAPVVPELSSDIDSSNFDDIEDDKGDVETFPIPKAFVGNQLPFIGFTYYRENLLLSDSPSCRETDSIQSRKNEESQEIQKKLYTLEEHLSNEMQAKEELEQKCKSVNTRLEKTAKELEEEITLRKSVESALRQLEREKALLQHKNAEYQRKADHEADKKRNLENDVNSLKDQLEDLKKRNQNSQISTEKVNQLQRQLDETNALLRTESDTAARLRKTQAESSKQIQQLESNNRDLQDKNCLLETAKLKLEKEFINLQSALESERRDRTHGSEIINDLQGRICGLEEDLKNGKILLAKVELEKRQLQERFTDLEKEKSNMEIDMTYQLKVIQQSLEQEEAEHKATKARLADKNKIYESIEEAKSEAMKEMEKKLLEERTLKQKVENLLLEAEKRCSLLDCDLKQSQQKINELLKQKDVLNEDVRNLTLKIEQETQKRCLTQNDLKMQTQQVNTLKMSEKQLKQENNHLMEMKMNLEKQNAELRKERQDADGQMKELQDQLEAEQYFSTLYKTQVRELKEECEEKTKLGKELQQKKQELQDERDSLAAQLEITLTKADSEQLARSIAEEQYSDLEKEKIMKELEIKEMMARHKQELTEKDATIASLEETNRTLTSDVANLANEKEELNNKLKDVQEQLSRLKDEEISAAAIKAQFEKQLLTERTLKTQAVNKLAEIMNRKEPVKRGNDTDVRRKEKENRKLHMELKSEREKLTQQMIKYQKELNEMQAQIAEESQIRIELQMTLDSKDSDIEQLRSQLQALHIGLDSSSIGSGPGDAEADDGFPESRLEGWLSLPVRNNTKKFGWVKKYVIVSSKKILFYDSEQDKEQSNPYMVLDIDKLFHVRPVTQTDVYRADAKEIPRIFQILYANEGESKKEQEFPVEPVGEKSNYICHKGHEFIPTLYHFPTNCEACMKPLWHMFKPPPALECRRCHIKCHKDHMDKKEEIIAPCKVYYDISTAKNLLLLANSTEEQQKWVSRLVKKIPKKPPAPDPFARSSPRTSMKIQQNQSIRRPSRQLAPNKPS
row,IC50 [nM],Compound
1,330,"2-cyclopropyl-4- {[(aR)-6-{4-[(1R)- 1-hydroxyethyl]-2,5- dioxoimidazolidin-1- yl}spiro[3.3]heptan- 2-yl]oxy}-1,3- thiazole-5- carboxamide [Example 109]"
2,3100,"NC(=O)c1cc2sccc2nc1OC1CC2(CC(NC(=O)C3CC(=O)N(Cc4ccc(Cl)cc4)C3)C2)C1 (single isomer, unassigned) [Example 78, N-[6-({6-carbamoylthieno[3,2-b]pyridin-5-yl}oxy)spiro[3.3]heptan-2-yl]-1-[(4-chlorophenyl)methyl]-5-oxopyrrolidine-3-carboxamide]"
3,2340,"NC(=O)c1cc2sccc2nc1OC1CC2(CC(NC(=O)C3CC(=O)N(Cc4ccc(Cl)cc4)C3)C2)C1 (single isomer, unassigned) [Example 80, N-[6-({6-carbamoylthieno[3,2-b]pyridin-5-yl}oxy)spiro[3.3]heptan-2-yl]-1-[(4-chlorophenyl)methyl]-5-oxopyrrolidine-3-carboxamide]"
4,42.7,"[H][C@]1(Oc2nc(C)sc2C(N)=O)C[C@]2(C[C@@H](NC(=O)c3cnn(-c4ccc(Cl)cc4)c3C)C2)C1 (stereo partly drawn) [Example 1, 4-(((aR)-6-(1-(4-Chlorophenyl)-5-methyl-1H-pyrazole-4-carboxamido)spiro[3.3]heptan-2-yl)oxy)-2-methylthiazole-5-carboxamide]"
5,68.8,"[H][C@]1(Oc2nc(C3CC3)sc2C(N)=O)C[C@]2(C[C@@H](NC(=O)c3nc(C(F)(F)F)n4cc(-n5ccccc5=O)ccc34)C2)C1 (stereo partly drawn) [Example 3, 2-Cyclopropyl-4-(((aR)-6-(6-(2-oxopyridin-1(2H)-yl)-3-(trifluoromethyl)imidazo[1,5-a]pyridine-1-carboxamido)spiro[3.3]heptan-2-yl)oxy)thiazole-5-carboxamide]"
6,25.6,[H][C@]1(Oc2nn3ccccc3c2C(N)=O)C[C@]2(C[C@@H](NC(=O)c3cnn4c(C5CC5)c(OCC(C)(C)O)ccc34)C2)C1 (some centres unmarked) [Example 6]
7,5.4,"CC(C)(O)COc1ccc2c(C(=O)NC3CC4(C3)CC(Oc3nc5c(cc3C(N)=O)CCCN5)C4)cnn2c1C1CC1 [Example 8, 2-(((aR)-6-(7-Cyclopropyl-6-(2-hydroxy-2-methylpropoxy)pyrazolo[1,5-a]pyridine-3-carboxamido)spiro[3.3]heptan-2-yl)oxy)-5,6,7,8-tetrahydro-1,8-naphthyridine-3-carboxamide]"
8,349,"NC(=O)c1cc2sccc2nc1OC1CC2(CC(NC(=O)C3CCC(C(F)(F)F)CC3)C2)C1 (centres unmarked) [Example 9, 5-((6-(4-(Trifluoromethyl)cyclohexane-1-carboxamido)spiro[3.3]heptan-2-yl)oxy)thieno[3,2-b]pyridine-6-carboxamide]"
9,23.3,"NC(=O)c1sc(C2CC2)nc1O[C@H]1CC2(C[C@H](NC(=O)c3cnn4cc(OCC(F)F)ccc34)C2)C1 (stereo partly drawn) [Example 11, 2-cyclopropyl-4-(((aR)-6-(6-(2,2-difluoroethoxy)pyrazolo[1,5-a]pyridine-3-carboxamido)spiro[3.3]heptan-2-yl)oxy)thiazole-5-carboxamide]"
10,40.1,"CC(C)(O)COc1ccc2c(C(=O)NC3CC4(C3)CC(Oc3nc5c(cc3C(N)=O)COCC5)C4)cnn2c1 [Example 12, 6-(2-hydroxy-2-methylpropoxy)-N-[(aR)-6-({3-carbamoyl-5H,7H,8H-pyrano[4,3-b]pyridin-2-yl}oxy)spiro[3.3]heptan-2-yl]pyrazolo[1,5-a]pyridine-3-carboxamide]"
11,576,NC(=O)c1cc2c(nc1O[C@H]1C[C@]3(C1)C[C@H](N1C(=O)CN(Cc4ccccc4)CC1=O)C3)CCOC2 (some centres unmarked) [Example 13]
12,14.1,"Cn1cc(C(N)=O)c(O[C@H]2C[C@@]3(C[C@H](NC(=O)c4cnn5c(C6CC6)c(OCC(C)(C)O)ccc45)C3)C2)n1 (stereo partly drawn) [Example 14, 3-({(aR)-6-[7-cyclopropyl-6-(2-hydroxy-2-methylpropoxy)pyrazolo [1,5-a]pyridine-3-amido]spiro[3.3]heptan-2-yl}oxy)-1-methyl-1H-pyrazole-4-carboxamide]"
13,12.5,"CC(C)(O)COc1ccc2c(C(=O)N[C@H]3C[C@]4(C3)C[C@H](Oc3nn(-c5ccccc5)cc3C(N)=O)C4)cnn2c1C1CC1 (stereo partly drawn) [Example 15, 3-({(aR)-6-[7-cyclopropyl-6-(2-hydroxy-2-methylpropoxy)pyrazolo [1,5-a]pyridine-3-amido]spiro[3.3]heptan-2-yl}oxy)-1-phenyl-1H-pyrazole-4-carboxamide]"
14,18.5,"CC(C)(O)COc1ccc2c(C(=O)N[C@H]3C[C@]4(C3)C[C@H](Oc3nc(-c5ccccc5)sc3C(N)=O)C4)cnn2c1 (stereo partly drawn) [Example 17, 4-({(aR)-6-[6-(2-hydroxy-2-methylpropoxy)pyrazolo [1,5-a]pyridine-3-amido]spiro[3.3]heptan-2-yl}oxy)-2-phenyl-1,3-thiazole-5-carboxamide]"
15,13.4,"CC(C)(O)COc1ccc2c(C(=O)N[C@H]3C[C@]4(C3)C[C@H](Oc3nc(-c5ccccc5)sc3C(N)=O)C4)cnn2c1C1CC1 (stereo partly drawn) [Example 18, 4-({(aR)-6-[7-cyclopropyl-6-(2-hydroxy-2-methylpropoxy)pyrazolo [1,5-a]pyridine-3-amido]spiro[3.3]heptan-2-yl}oxy)-2-phenyl-1,3-thiazole-5-carboxamide]"
16,10.5,"CCn1cc(C(N)=O)c(O[C@H]2C[C@@]3(C[C@H](NC(=O)c4cnn5c(C6CC6)c(OCC(C)(C)O)ccc45)C3)C2)n1 (stereo partly drawn) [Example 19, 3-({(aR)-6-[7-cyclopropyl-6-(2-hydroxy-2-methylpropoxy)pyrazolo [1,5-a]pyridine-3-amido]spiro[3.3]heptan-2-yl}oxy)-1-ethyl-1H-pyrazole-4-carboxamide]"
17,18.9,"Cc1nc(O[C@H]2C[C@@]3(C[C@H](NC(=O)c4cnn5cc(OCC(C)(C)O)ccc45)C3)C2)c(C(N)=O)s1 (stereo partly drawn) [Example 21, 4-({(aR)-6-[6-(2-hydroxy-2-methylpropoxy)pyrazolo [1,5-a]pyridine-3-amido]spiro[3.3]heptan-2-yl}oxy)-2-methyl-1,3-thiazole-5-carboxamide]"
18,7,"Cc1nc(O[C@H]2C[C@@]3(C[C@H](NC(=O)c4cnn5c(C6CC6)c(OCC(C)(C)O)ccc45)C3)C2)c(C(N)=O)s1 (stereo partly drawn) [Example 22, 4-({(aR)-6-[7-cyclopropyl-6-(2-hydroxy-2-methylpropoxy)pyrazolo [1,5-a]pyridine-3-amido]spiro[3.3]heptan-2-yl}oxy)-2-methyl-1,3-thiazole-5-carboxamide]"
19,77.7,"COCCn1cc(C(N)=O)c(O[C@H]2C[C@@]3(C[C@H](NC(=O)c4cnn5c(C6CC6)c(OCC(C)(C)O)ccc45)C3)C2)n1 (stereo partly drawn) [Example 23, 3-({(aR)-6-[7-cyclopropyl-6-(2-hydroxy-2-methylpropoxy)pyrazolo [1,5-a]pyridine-3-amido]spiro[3.3]heptan-2-yl}oxy)-1-(2-methoxyethyl)-1H-pyrazole-4-carboxamide]"
20,1480,"COCCn1ncc(C(N)=O)c1O[C@H]1C[C@@]2(C[C@H](NC(=O)c3cnn4c(C5CC5)c(OCC(C)(C)O)ccc34)C2)C1 (stereo partly drawn) [Example 24, 5-({(aR)-6-[7-cyclopropyl-6-(2-hydroxy-2-methylpropoxy)pyrazolo [1,5-a]pyridine-3-amido]spiro[3.3]heptan-2-yl}oxy)-1-(2-methoxyethyl)-1H-pyrazole-4-carboxamide]"
21,25.4,"CC(C)(O)COc1ccc2c(C(=O)N[C@H]3C[C@]4(C3)C[C@H](Oc3[nH]ncc3C(N)=O)C4)cnn2c1C1CC1 (stereo partly drawn) [Example 26, 5-({(aR)-6-[7-cyclopropyl-6-(2-hydroxy-2-methylpropoxy)pyrazolo [1,5-a]pyridine-3-amido]spiro[3.3]heptan-2-yl}oxy)-1H-pyrazole-4-carboxamide]"

row,Compound,IC50 [nM]
1,"CC(C)CC1NC(=O)N([C@H]2C[C@@]3(C[C@H](Oc4nc(C5CC5)sc4C(N)=O)C3)C2)C1=O (single isomer, unassigned) [Example 110, 2-cyclopropyl-4-{[{aR)-6-[4-(2-methylpropyl)-2,5-dioxoimidazolidin-1-yl]spiro[3.3]heptan-2-yl]oxy}-1,3-thiazole-5-carboxamide]",12.2
2,"CC(C)CC1NC(=O)N([C@H]2C[C@@]3(C[C@H](Oc4nc(C5CC5)sc4C(N)=O)C3)C2)C1=O (single isomer, unassigned) [Example 111]",106
3,"Cn1cc(C(N)=O)c(OC2CC3(CC(NC(=O)c4cnn5cc(OCCC(F)(F)F)ccc45)C3)C2)n1 [Example 4, N-((aR)-6-((4-Carbamoyl-1-methyl-1H-pyrazol-3-yl)oxy)spiro[3.3]heptan-2-yl)-6-(3,3,3-trifluoropropoxy)pyrazolo[1,5-a]pyridine-3-carboxamide]",20.1
4,CC(C)(O)COc1ccc2c(C(=O)NC3CC4(C3)CC(Oc3nn(CC5CC5)cc3C(N)=O)C4)cnn2c1C1CC1 (centres unmarked) [Example 5],52.6
5,"CC(C)(O)COc1ccc2c(C(=O)NC3CC4(C3)CC(Oc3nc5ncccc5cc3C(N)=O)C4)cnn2c1C1CC1 [Example 7, 2-(((aR)-6-(7-Cyclopropyl-6-(2-hydroxy-2-methylpropoxy)pyrazolo[1,5-a]pyridine-3-carboxamido)spiro[3.3]heptan-2-yl)oxy)-1,8-naphthyridine-3-carboxamide]",4.8
6,CC(C)CC1NC(=O)N([C@H]2C[C@@]3(C[C@H](Oc4nc(C5CC5)sc4C(N)=O)C3)C2)C1=O (some centres unmarked) [Example 10],27.4
7,"CC(C)(O)COc1ccc2c(C(=O)NC3CC4(C3)CC(Oc3nn(CC5CCNCC5)cc3C(N)=O)C4)cnn2c1C1CC1 [Example 20, 3-({(aR)-6-[7-cyclopropyl-6-(2-hydroxy-2-methylpropoxy)pyrazolo [1,5-a]pyridine-3-amido]spiro[3.3]heptan-2-yl}oxy)-1-[(piperidin-4-yl)methyl]-1H-pyrazole-4-carboxamide]",6.8
8,"Cc1nc(O[C@H]2C[C@@]3(C[C@H](NC(=O)c4nn(C(F)F)c5cc(OCC(C)(C)O)ccc45)C3)C2)c(C(N)=O)s1 (stereo partly drawn) [Example 25, N-{(aR)-6-[(5-carbamoyl-2-methyl-1,3-thiazol-4-yl)oxy]spiro[3.3]heptan-2-yl}-1-(difluoromethyl)-6-(2-hydroxy-2-methylpropoxy)-1H-indazole-3-carboxamide]",6.4
